From the NIST ThermoML archive (doi:10.1016/j.tca.2013.05.023)
Numbers after ± are expanded uncertainties.

Legend:
[1] = xn = mol fraction of the nth substance listed; conditions: 101 kPa, Liquid, Alternating current cell with electrodes, x1 = 0.3333
[2] = molar heat capacity at constant pressure; xn = mol fraction of the nth substance listed; conditions: 101 kPa, Liquid, Small sample (50 mg) DSC, x1 = 0.3333

Row | Compound | electrical conductivity ([1]; 298.15 K) [S/m] | electrical conductivity ([1]; 303.15 K) [S/m] | electrical conductivity ([1]; 308.15 K) [S/m] | electrical conductivity ([1]; 313.15 K) [S/m] | electrical conductivity ([1]; 318.15 K) [S/m] | electrical conductivity ([1]; 323.15 K) [S/m] | electrical conductivity ([1]; 328.15 K) [S/m] | electrical conductivity ([1]; 333.15 K) [S/m] | electrical conductivity ([1]; 338.15 K) [S/m] | electrical conductivity ([1]; 343.15 K) [S/m] | molar heat capacity at constant pressure ([2]; 303.15 K) [J/K/mol] | molar heat capacity at constant pressure ([2]; 308.15 K) [J/K/mol] | molar heat capacity at constant pressure ([2]; 313.15 K) [J/K/mol] | molar heat capacity at constant pressure ([2]; 318.15 K) [J/K/mol] | molar heat capacity at constant pressure ([2]; 323.15 K) [J/K/mol] | molar heat capacity at constant pressure ([2]; 328.15 K) [J/K/mol] | molar heat capacity at constant pressure ([2]; 333.15 K) [J/K/mol] | molar heat capacity at constant pressure ([2]; 338.15 K) [J/K/mol] | molar heat capacity at constant pressure ([2]; 343.15 K) [J/K/mol] | molar heat capacity at constant pressure ([2]; 348.15 K) [J/K/mol] | other results
1 | CCN(CC)CCO.Cl [2-(diethylamino)ethanol hydrochloride] + OCC(O)CO | 0.069 ± 0.001 | 0.098 ± 0.002 | 0.134 ± 0.003 | 0.175 ± 0.004 | 0.228 ± 0.005 | 0.293 ± 0.006 | 0.368 ± 0.007 | 0.456 ± 0.009 | 0.556 ± 0.011 | 0.667 ± 0.013 | 83.46 ± 3.5 | 83.96 ± 3.6 | 84.39 ± 3.6 | 85.16 ± 3.6 | 85.72 ± 3.6 | 86.36 ± 3.7 | 86.96 ± 3.7 | 87.79 ± 3.7 | 88.46 ± 3.8 | 89.09 ± 3.8 | molar heat capacity at constant pressure ([2]; 353.15 K): 89.76 ± 3.8 J/K/mol
2 | CCN(CC)CCO.Cl [2-(diethylamino)ethanol hydrochloride] + OCCO | 0.47 ± 0.009 | 0.565 ± 0.011 | 0.68 ± 0.014 | 0.81 ± 0.016 | 0.96 ± 0.019 | 1.12 ± 0.02 | 1.29 ± 0.03 | 1.48 ± 0.03 | 1.68 ± 0.03 | 1.88 ± 0.04 | 68.03 ± 2.9 | 68.43 ± 2.9 | 68.83 ± 2.9 | 69.33 ± 2.9 | 69.83 ± 3 | 70.36 ± 3 | 71.03 ± 3 | 71.53 ± 3 | 72.09 ± 3.1 | 72.69 ± 3.1 | molar heat capacity at constant pressure ([2]; 353.15 K): 73.26 ± 3.1 J/K/mol
